Assay results reported in US11117900B2 (Vertex Pharmaceuticals Incorporated, priority 2012, dated 2021).

system: HCT116 colorectal cancer cells; experiment: Cisplatin sensitization assay (96 h MTS cell viability); type: cell-based; settings: Cisplatin sensitization value;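 further: compound concentration needed to lower the IC50 of Cisplatin alone by a set fold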
How it was run: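 HCT116 cells were dosed simultaneously with compound and cisplatin as a full matrix of 2-fold serial dilutions from 10 μM top final concentration. Incubation was 96 h at 37° C., 5% CO2, followed by 1 h with MTS reagent for the viability read-out. Sensitization values were binned into +++, ++ and + categories.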

Structure (SMILES)	Cisplatin Sensitization Assay
CN1CCN(c2c(C#N)cncc2NC(=O)c2c(N)nn3cc(F)cnc23)CC1 [I-N-113, 2-amino-N-(5-cyano-4-(4-methylpiperazin-1-yl)pyridin-3-yl)-6-fluoropyrazolo[1,5-a]pyrimidine-3-carboxamide]	+ (Compounds with a Cisplatin sensitization value >0.2 μM but <5 μM are marked with “+.”)
Nc1nn2cc(F)cnc2c1C(=O)Nc1cnccc1N1CCN2CCOC[C@@H]2C1 [I-N-115, (S)-2-amino-6-fluoro-N-(4-(hexahydropyrazino[2,1-c][1,4]oxazin-8(1H)-yl)pyridin-3-yl)pyrazolo[1,5-a]pyrimidine-3-carboxamide]	+++ (Compounds with a Cisplatin sensitization value of <0.02 μM are marked with “+++.”)
Nc1nn2cc(F)cnc2c1C(=O)Nc1cnccc1N1CCN2CCOC[C@H]2C1 [I-N-116, (R)-2-amino-6-fluoro-N-(4-(hexahydropyrazino[2,1-c][1,4]oxazin-8(1H)-yl)pyridin-3-yl)pyrazolo[1,5-a]pyrimidine-3-carboxamide]	++ (Compounds with a Cisplatin sensitization value >0.02 μM but <0.2 μM are marked with “++.”)
Nc1nn2cc(Cl)cnc2c1C(=O)Nc1cncc(F)c1N1CCN(C2COC2)CC1 [I-N-117, 2-amino-6-chloro-N-(5-fluoro-4-(4-(oxetan-3-yl)piperazin-1-yl)pyridin-3-yl)pyrazolo[1,5-a]pyrimidine-3-carboxamide]	+++ (Compounds with a Cisplatin sensitization value of <0.02 μM are marked with “+++.”)
Nc1nn2cc(F)cnc2c1C(=O)Nc1cncc(F)c1N1CCNCC1 [I-N-118, 2-amino-6-fluoro-N-(5-fluoro-4-(piperazin-1-yl)pyridin-3-yl)pyrazolo[1,5-a]pyrimidine-3-carboxamide]	+++ (Compounds with a Cisplatin sensitization value of <0.02 μM are marked with “+++.”)
Nc1nn2cc(F)cnc2c1C(=O)Nc1cncc(C2CC2)c1N1CCN([C@@H]2CCOC2)CC1 [I-N-119, (R)-2-amino-N-(5-cyclopropyl-4-(4-(tetrahydrofuran-3-yl)piperazin-1-yl)pyridin-3-yl)-6-fluoropyrazolo[1,5-a]pyrimidine-3-carboxamide]	++ (Compounds with a Cisplatin sensitization value >0.02 μM but <0.2 μM are marked with “++.”)
Nc1nn2cc(F)cnc2c1C(=O)Nc1cncc(C2CC2)c1N1CCN([C@H]2CCOC2)CC1 [I-N-120, (S)-2-amino-N-(5-cyclopropyl-4-(4-(tetrahydrofuran-3-yl)piperazin-1-yl)pyridin-3-yl)-6-fluoropyrazolo[1,5-a]pyrimidine-3-carboxamide]	+++ (Compounds with a Cisplatin sensitization value of <0.02 μM are marked with “+++.”)
Nc1nn2cc(F)cnc2c1C(=O)Nc1cncc(F)c1N1CCN(C2CCOCC2)CC1 [I-N-121, 2-amino-6-fluoro-N-(5-fluoro-4-(4-(tetrahydro-2H-pyran-4-yl)piperazin-1-yl)pyridin-3-yl)pyrazolo[1,5-a]pyrimidine-3-carboxamide]	+++ (Compounds with a Cisplatin sensitization value of <0.02 μM are marked with “+++.”)
Nc1nn2cc(F)cnc2c1C(=O)Nc1cncc(F)c1N1CCN(C2CCOC2)CC1 (centres unmarked) [I-N-122, 2-amino-6-fluoro-N-(5-fluoro-4-(4-(tetrahydrofuran-3-yl)piperazin-1-yl)pyridin-3-yl)pyrazolo[1,5-a]pyrimidine-3-carboxamide]	++ (Compounds with a Cisplatin sensitization value >0.02 μM but <0.2 μM are marked with “++.”)
Cc1cncc(NC(=O)c2c(N)nn3cc(F)cnc23)c1N1CCN(C2CCOCC2)CC1 [I-N-123, 2-amino-6-fluoro-N-(5-methyl-4-(4-(tetrahydro-2H-pyran-4-yl)piperazin-1-yl)pyridin-3-yl)pyrazolo[1,5-a]pyrimidine-3-carboxamide]	++ (Compounds with a Cisplatin sensitization value >0.02 μM but <0.2 μM are marked with “++.”)
Nc1nn2cc(F)cnc2c1C(=O)Nc1cncc(Cl)c1N1CCN(C2CCOC2)CC1 (centres unmarked) [I-N-124, 2-amino-N-(5-chloro-4-(4-(tetrahydrofuran-3-yl)piperazin-1-yl)pyridin-3-yl)-6-fluoropyrazolo[1,5-a]pyrimidine-3-carboxamide]	+++ (Compounds with a Cisplatin sensitization value of <0.02 μM are marked with “+++.”)
Nc1nn2cc(F)cnc2c1C(=O)Nc1cncc(F)c1N1CCN([C@H]2CCOC2)CC1 [I-N-125, (S)-2-amino-6-fluoro-N-(5-fluoro-4-(4-(tetrahydrofuran-3-yl)piperazin-1-yl)pyridin-3-yl)pyrazolo[1,5-a]pyrimidine-3-carboxamide]	+++ (Compounds with a Cisplatin sensitization value of <0.02 μM are marked with “+++.”)
Nc1nn2cc(F)cnc2c1C(=O)Nc1cncc(Cl)c1N1CCNCC1 [I-N-126, 2-amino-N-(5-chloro-4-(piperazin-1-yl)pyridin-3-yl)-6-fluoropyrazolo[1,5-a]pyrimidine-3-carboxamide]	+++ (Compounds with a Cisplatin sensitization value of <0.02 μM are marked with “+++.”)
COCCN1CCN(c2c(F)cncc2NC(=O)c2c(N)nn3cc(F)cnc23)CC1 [I-N-127, 2-amino-6-fluoro-N-(5-fluoro-4-(4-(2-methoxyethyl)piperazin-1-yl)pyridin-3-yl)pyrazolo[1,5-a]pyrimidine-3-carboxamide]	+++ (Compounds with a Cisplatin sensitization value of <0.02 μM are marked with “+++.”)
CN1CCC(C(=O)N2CCN(c3c(F)cncc3NC(=O)c3c(N)nn4cc(F)cnc34)CC2)CC1 [I-N-128, 2-amino-6-fluoro-N-(5-fluoro-4-(4-(1-methylpiperidine-4-carbonyl)piperazin-1-yl)pyridin-3-yl)pyrazolo[1,5-a]pyrimidine-3-carboxamide]	+++ (Compounds with a Cisplatin sensitization value of <0.02 μM are marked with “+++.”)
Nc1nn2cc(F)cnc2c1C(=O)Nc1cncc(F)c1N1CCN(C(=O)C2CN3CCC2CC3)CC1 (centres unmarked) [I-N-130, 2-amino-6-fluoro-N-(5-fluoro-4-(4-(quinuclidine-3-carbonyl)piperazin-1-yl)pyridin-3-yl)pyrazolo[1,5-a]pyrimidine-3-carboxamide]	++ (Compounds with a Cisplatin sensitization value >0.02 μM but <0.2 μM are marked with “++.”)
CN1CC[C@@H](OC2CCN(c3ccncc3NC(=O)c3c(N)nn4cc(F)cnc34)CC2)C1 [I-N-131]	+++ (Compounds with a Cisplatin sensitization value of <0.02 μM are marked with “+++.”)
CN1CC[C@@H](OC2CCN(c3c(F)cncc3NC(=O)c3c(N)nn4cc(F)cnc34)CC2)C1 [I-N-132, (R)-2-amino-6-fluoro-N-(5-fluoro-4-(4-((1-methylpyrrolidin-3-yl)oxy)piperidin-1-yl)pyridin-3-yl)pyrazolo[1,5-a]pyrimidine-3-carboxamide]	+++ (Compounds with a Cisplatin sensitization value of <0.02 μM are marked with “+++.”)
CN1CCN(c2ccncc2NC(=O)c2c(N)nn3cc(F)cnc23)CC12CCOCC2 [I-N-133, 2-amino-6-fluoro-N-(4-(1-methyl-9-oxa-1,4-diazaspiro[5.5]undecan-4-yl)pyridin-3-yl)pyrazolo[1,5-a]pyrimidine-3-carboxamide]	++ (Compounds with a Cisplatin sensitization value >0.02 μM but <0.2 μM are marked with “++.”)
Nc1nn2cc(F)cnc2c1C(=O)Nc1cncc(F)c1N1CCN(C(=O)C23CCN(CC2)CC3)CC1 [I-N-134, 2-amino-6-fluoro-N-(5-fluoro-4-(4-(quinuclidine-4-carbonyl)piperazin-1-yl)pyridin-3-yl)pyrazolo[1,5-a]pyrimidine-3-carboxamide]	+ (Compounds with a Cisplatin sensitization value >0.2 μM but <5 μM are marked with “+.”)
Nc1nn2cc(F)cnc2c1C(=O)Nc1cncc(F)c1N1CCN2CCOC[C@H]2C1 [I-N-135, (R)-2-amino-6-fluoro-N-(5-fluoro-4-(hexahydropyrazino[2,1-c][1,4]oxazin-8(1H)-yl)pyridin-3-yl)pyrazolo[1,5-a]pyrimidine-3-carboxamide]	+++ (Compounds with a Cisplatin sensitization value of <0.02 μM are marked with “+++.”)
Nc1nn2cc(F)cnc2c1C(=O)Nc1cnccc1N1CCN2C(=O)COCC2C1 (centres unmarked) [I-N-136, 2-amino-6-fluoro-N-(4-(4-oxohexahydropyrazino[2,1-c][1,4]oxazin-8(1H)-yl)pyridin-3-yl)pyrazolo[1,5-a]pyrimidine-3-carboxamide]	++ (Compounds with a Cisplatin sensitization value >0.02 μM but <0.2 μM are marked with “++.”)
Nc1nn2cc(F)cnc2c1C(=O)Nc1cncc(F)c1N1CCN2CCOC[C@@H]2C1 [I-N-137, (S)-2-amino-6-fluoro-N-(5-fluoro-4-(hexahydropyrazino[2,1-c][1,4]oxazin-8(1H)-yl)pyridin-3-yl)pyrazolo[1,5-a]pyrimidine-3-carboxamide]	++ (Compounds with a Cisplatin sensitization value >0.02 μM but <0.2 μM are marked with “++.”)
CN1CCN(c2c(F)cncc2NC(=O)c2c(N)nn3cc(C(C)(C)C#N)cnc23)CC1 [I-N-138, 2-amino-6-(2-cyanopropan-2-yl)-N-(5-fluoro-4-(4-methylpiperazin-1-yl)pyridin-3-yl)pyrazolo[1,5-a]pyrimidine-3-carboxamide]	++ (Compounds with a Cisplatin sensitization value >0.02 μM but <0.2 μM are marked with “++.”)
CC(C)(O)CN1CCN(c2c(F)cncc2NC(=O)c2c(N)nn3cc(F)cnc23)CC1 [I-N-139, 2-amino-6-fluoro-N-(5-fluoro-4-(4-(2-hydroxy-2-methylpropyl)piperazin-1-yl)pyridin-3-yl)pyrazolo[1,5-a]pyrimidine-3-carboxamide]	+++ (Compounds with a Cisplatin sensitization value of <0.02 μM are marked with “+++.”)
CN1CCN(C(=O)N2CCN(c3c(F)cncc3NC(=O)c3c(N)nn4cc(F)cnc34)CC2)CC1 [I-N-140, 2-amino-6-fluoro-N-(5-fluoro-4-(4-(4-methylpiperazine-1-carbonyl)piperazin-1-yl)pyridin-3-yl)pyrazolo[1,5-a]pyrimidine-3-carboxamide]	+++ (Compounds with a Cisplatin sensitization value of <0.02 μM are marked with “+++.”)
